# Several values for one entry are separate records, joined by “and”; a condition that tells them apart may be missing. Equal entries are not always repeated. Structures can show the parent of a compound that is named as a salt. Positions of bridges follow the written chain, without caps; N, C: chain ends. Non-standard residues stand in square brackets, D forms with d. Residues, ends and D or L forms follow the SMILES beside them. d2Nal = N[C@H](Cc1ccc2ccccc2c1)C(=O)O; Hyp = O=C(O)[C@@H]1C[C@@H](O)CN1; Nle = CCCC[C@H](N)C(=O)O
# How the values were obtained:
# human MC4R = biological target: T1, human MC4R (Homo sapiens, UniProt P32245); assay: cAMP accumulation assay (HTRF), antagonist activity at MC4R; assay type: cell-based; conditions: for Emax: HEK293, HEK293/MC4R/CRE-GFP, 0.1 nM to 1,000 nM, read-out: Max Activation %; for Hill Coefficient / Top (%): dose-response fit, MC4R; for IC50: HEK293/MC4R/CRE-GFP, estimated from dose-response curve
# T1 construct: expressed in transfected cells; host or cells: HEK293/MC4R/CRE-GFP
# T1 sequence (P32245 whole entry): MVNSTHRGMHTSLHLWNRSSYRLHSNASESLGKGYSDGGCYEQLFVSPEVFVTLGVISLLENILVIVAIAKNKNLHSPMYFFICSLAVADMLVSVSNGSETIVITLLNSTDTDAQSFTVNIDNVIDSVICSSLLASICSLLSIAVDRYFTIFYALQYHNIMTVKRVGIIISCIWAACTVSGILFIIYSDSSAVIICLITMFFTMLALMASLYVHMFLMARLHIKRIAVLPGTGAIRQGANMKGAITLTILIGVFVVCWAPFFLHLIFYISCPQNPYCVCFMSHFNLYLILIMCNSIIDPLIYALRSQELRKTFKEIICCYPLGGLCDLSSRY
# Experimental: (§1) The antagonist activity of exemplary non-naturally occurring melanocortin analogs (SEQ ID NOs: 3, 4, 6, 9-11, 14, 15, and 291-309) at the melanocortin 3 receptor (MC3R) and melanocortin 4 (MC4R) receptor was measured via cAMP accumulation assay, according to the following procedure.
# (§2) Recombinant cell lines shown in Table 1 were stimulated with melanocortin receptor antagonists and evaluated for cyclic adenosine monophosphate (cAMP) levels as a measurement of receptor activation. cAMP levels were quantified using Homogeneous Time-Resolved Fluorescence (HTRF). The stimulation and CAMP measurement were performed sequentially. First, the compound stimulated the G-protein coupled receptor (GPCR) which then induced downstream signaling, which was measured soon after. Cell lines and stimulated receptors used are detailed in Table 1.
# (§3) Twenty-seven exemplary synthetic peptides were tested for antagonist activity at the human MC3R and MC4R at concentrations ranging from 0.1 nM to 1,000 nM. After stimulation, the level of cyclic adenosine monophosphate (CAMP) in each well was quantified via Homogenous Time-Resolved Fluorescence (HTRF) as a measurement of receptor activity. Dose-response curves and estimated IC50 values were then obtained for each antagonist peptide against the MC3R and MC4R. HS024 (TFA) and was used as a positive control for the antagonist activity of MC3R (FIG. 1A) and MC4R (FIG. 1B).
# human MC3R = biological target: T2, human MC3R (Homo sapiens, UniProt P41968); assay: cAMP accumulation assay (HTRF), antagonist activity at MC3R; assay type: cell-based; conditions: for Emax / IC50: HEK293/CRE-luc/MC3R; for Emax: 0.1 nM to 1,000 nM, read-out: Max Activation %; for Hill Coefficient / Top (%): dose-response fit, MC3R; for IC50: estimated from dose-response curve
# T2 construct: expressed in transfected cells; host or cells: HEK293/CRE-luc/MC3R
# T2 sequence (P41968 whole entry): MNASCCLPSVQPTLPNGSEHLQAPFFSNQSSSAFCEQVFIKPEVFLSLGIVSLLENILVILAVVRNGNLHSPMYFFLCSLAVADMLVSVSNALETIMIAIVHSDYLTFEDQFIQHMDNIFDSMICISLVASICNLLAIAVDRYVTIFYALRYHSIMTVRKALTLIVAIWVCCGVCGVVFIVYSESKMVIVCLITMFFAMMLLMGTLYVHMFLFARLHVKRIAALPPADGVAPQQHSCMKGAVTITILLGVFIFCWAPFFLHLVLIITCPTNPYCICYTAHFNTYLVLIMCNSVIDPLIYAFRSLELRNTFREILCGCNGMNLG
# Experimental: as §1, §2, §3
Compound,Emax (human MC4R) [%],Hill Coefficient (human MC4R),Top (%) (human MC4R),Emax (human MC3R) [%],Hill Coefficient (human MC3R),Top (%) (human MC3R),IC50 (human MC4R),IC50 (human MC3R)
"CCCC[C@@H]1NC(=O)[C@@H](NC(C)=O)CSSC[C@@H](C(N)=O)NC(=O)CNC(=O)[C@H](Cc2c[nH]c3ccccc23)NC(=O)[C@H](CCCNC(=N)N)NC(=O)[C@@H](Cc2ccc3ccccc3c2)NC(=O)[C@H](Cc2c[nH]cn2)NC(=O)[C@H](CCCNC(=N)N)NC1=O [HS024(TFA), reference compound] (Ac-C[Nle]RH[d2Nal]RWGC-NH2; disulfide 1-9 (inferred); N-terminus and C-terminus assumed)",104,0.61,113.93%,102,0.93,117.07,,
"CCCC[C@H](NC(C)=O)C(=O)N[C@@H](CC(=O)O)C(=O)N1CCC[C@H]1C(=O)N[C@H](Cc1ccc2ccccc2c1)C(=O)N[C@@H](CCCNC(=N)N)C(=O)N[C@@H](Cc1c[nH]c2ccccc12)C(=O)N[C@@H](CCCCN)C(=O)N[C@@H](C(=O)N1CCC[C@@H]1C(N)=O)C(C)C [Peptide A1, Ac-Nle-Asp-Pro-Dnal(2′)-Arg-Trp-Lys-Dval-Dpro-NH2] (Ac-[Nle]DP[d2Nal]RWK[dV][dP]-NH2)",,0.43 and 0.32,1195.94% and 652.03%,84.4,0.55,1002.64,< 10 µM,< 10 µM
"CCCC[C@H](NC(C)=O)C(=O)N[C@H]1CC(=O)NCCCC[C@@H](C(=O)N[C@@H](C(=O)N2CCC[C@@H]2C(N)=O)C(C)C)NC(=O)[C@H](Cc2c[nH]c3ccccc23)NC(=O)[C@H](CCCNC(=N)N)NC(=O)[C@@H](Cc2ccc3ccccc3c2)NC(=O)[C@H](Cc2c[nH]cn2)NC(=O)[C@@H]2CCCN2C1=O [Peptide D1, Ac-Nle-c(Asp-Pro-His-Dnal(2′)-Arg-Trp-Lys)-Dval-Dpro-NH2] (Ac-[Nle]DPH[d2Nal]RWK[dV][dP]-NH2; lactam 2-8)",49.4,0.55,2739.03%,74.5,0.73,4952.72,> 10 µM,< 10 µM
"CCCC[C@H](NC(C)=O)C(=O)N[C@H]1CC(=O)NCCCC[C@@H](C(=O)N[C@@H](C(=O)N2CCC[C@@H]2C(N)=O)C(C)C)NC(=O)[C@H](Cc2c[nH]c3ccccc23)NC(=O)[C@H](CCCNC(=N)N)NC(=O)[C@@H](Cc2ccc3ccccc3c2)NC(=O)[C@@H]2C[C@@H](O)CN2C1=O [Peptide D3, Ac-Nle-c(Asp-Hyp-Dnal(2′)-Arg-Trp-Lys)-Dval-Dpro-NH2] (Ac-[Nle]D[Hyp][d2Nal]RWK[dV][dP]-NH2; lactam 2-7)",117,0.80,119.03%,111,0.98,113.20,< 10 µM and 0.0406 µM,< 10 µM and 0.087 µM
"CCCC[C@H](NC(C)=O)C(=O)N[C@H]1CC(=O)NCCCC[C@@H](C(=O)N[C@@H](C(=O)N2CCC[C@@H]2C(N)=O)C(C)C)NC(=O)[C@@H]2CCCN2C(=O)[C@H](Cc2c[nH]c3ccccc23)NC(=O)[C@H](CCCNC(=N)N)NC(=O)[C@@H](Cc2ccc3ccccc3c2)NC(=O)[C@@H]2C[C@@H](O)CN2C1=O [Peptide D4, Ac-Nle-c(Asp-Hyp-Dnal(2′)-Arg-Trp-Pro-Lys)-Dval-Dpro-NH2] (Ac-[Nle]D[Hyp][d2Nal]RWPK[dV][dP]-NH2; lactam 2-8)",21,0.92,9354.39%,50.1,0.65,2741.58,,> 10 µM
"CCCC[C@H](NC(C)=O)C(=O)N[C@H]1CC(=O)NCCCC[C@@H](C(=O)N2CCC[C@@H]2C(=O)N[C@@H](C(N)=O)C(C)C)NC(=O)[C@H](Cc2c[nH]c3ccccc23)NC(=O)[C@H](CCCNC(=N)N)NC(=O)[C@@H](Cc2ccc3ccccc3c2)NC(=O)[C@H](Cc2c[nH]cn2)NC(=O)[C@@H]2CCCN2C1=O [Peptide D5, Ac-Nle-c(Asp-Pro-His-Dnal(2′)-Arg-Trp-Lys)-Dpro-Dval-NH2] (Ac-[Nle]DPH[d2Nal]RWK[dP][dV]-NH2; lactam 2-8)",41.5,0.67,2724.46%,24.6,1.04,472.61,,> 10 µM
Ac-Leu-c(Asp-Pro-Phe-Phe-Arg-Trp-Lys)-Val-Pro-NH2 (Ac-LDPFFRWKVP-NH2; lactam 2-8; SMILES CC(=O)N[C@@H](CC(C)C)C(=O)N[C@H]1CC(=O)NCCCC[C@@H](C(=O)N[C@H](C(=O)N2CCC[C@H]2C(N)=O)C(C)C)NC(=O)[C@H](Cc2c[nH]c3ccccc23)NC(=O)[C@H](CCCNC(=N)N)NC(=O)[C@H](Cc2ccccc2)NC(=O)[C@H](Cc2ccccc2)NC(=O)[C@@H]2CCCN2C1=O) [Peptide B2],,0.69,729.66%,,0.34,20.30,,
Ac-Leu-c(Asp-Pro-Trp-Arg-Trp-Lys)-Val-Pro-NH2 (Ac-LDPWRWKVP-NH2; lactam 2-7; SMILES CC(=O)N[C@@H](CC(C)C)C(=O)N[C@H]1CC(=O)NCCCC[C@@H](C(=O)N[C@H](C(=O)N2CCC[C@H]2C(N)=O)C(C)C)NC(=O)[C@H](Cc2c[nH]c3ccccc23)NC(=O)[C@H](CCCNC(=N)N)NC(=O)[C@H](Cc2c[nH]c3ccccc23)NC(=O)[C@@H]2CCCN2C1=O) [Peptide C2],,48.53,−2.85%,,−0.48,0.42,,
Ac-Nle-Pro-Dnal(2′)-Arg-Trp-Dval-Dpro-NH2 (Ac-[Nle]P[d2Nal]RW[dV][dP]-NH2; SMILES CCCC[C@H](NC(C)=O)C(=O)N1CCC[C@H]1C(=O)N[C@H](Cc1ccc2ccccc2c1)C(=O)N[C@@H](CCCNC(=N)N)C(=O)N[C@@H](Cc1c[nH]c2ccccc12)C(=O)N[C@@H](C(=O)N1CCC[C@@H]1C(N)=O)C(C)C) [Peptide A2],,,,,0.82,9.73,,
Ac-Nle-c(Asp-His-Dnal(2′)-Arg-Trp-Pro-Lys)-Dval-Dpro-NH2 (Ac-[Nle]DH[d2Nal]RWPK[dV][dP]-NH2; lactam 2-8; SMILES CCCC[C@H](NC(C)=O)C(=O)N[C@H]1CC(=O)NCCCC[C@@H](C(=O)N[C@@H](C(=O)N2CCC[C@@H]2C(N)=O)C(C)C)NC(=O)[C@@H]2CCCN2C(=O)[C@H](Cc2c[nH]c3ccccc23)NC(=O)[C@H](CCCNC(=N)N)NC(=O)[C@@H](Cc2ccc3ccccc3c2)NC(=O)[C@H](Cc2c[nH]cn2)NC1=O) [Peptide D2],,1.55,18.76%,,0.84,177.39,,
Ac-Nle-c(Asp-Pro-Phe-Phe-Arg-Trp-Lys)-Dval-Dpro-NH2 (Ac-[Nle]DPFFRWK[dV][dP]-NH2; lactam 2-8; SMILES CCCC[C@H](NC(C)=O)C(=O)N[C@H]1CC(=O)NCCCC[C@@H](C(=O)N[C@@H](C(=O)N2CCC[C@@H]2C(N)=O)C(C)C)NC(=O)[C@H](Cc2c[nH]c3ccccc23)NC(=O)[C@H](CCCNC(=N)N)NC(=O)[C@H](Cc2ccccc2)NC(=O)[C@H](Cc2ccccc2)NC(=O)[C@@H]2CCCN2C1=O) [Peptide B1],,7.57,,,1.05,,,
